Here are results for two substances from patent US9493528B2, “Microphthalmia-associated transcription factor-derived peptide and composition containing same” (KNU-INDUSTRY COOPERATION FOUNDATION, priority 2013, dated 2016).

No end group written: not given here.

Assay [1] deals with tyrosinase. In words: Inhibitory activity against tyrosinase activity in mouse melanoma cell line B16F1 (L-DOPA). Format: cell-based. The note with it: B16F1 cells, α-MSH, 72 hours, extracts with L-DOPA 2 hours, absorbance at 490, FIG. 6. The method, then:
B16F1 cells (Korean Cell Line Bank, Seoul) were added to each well of a 24-well plate (5×10^4 cells per well), along with 1 ml of DMEM, and then stabilized through incubating in a 5% CO2 incubator at 37° C. for 24 hours. α-MSH (Sigma Co, MO, USA), a melanocyte-stimulating hormone, was treated to each well, along with the peptide of SEQ ID NO: 3 in predetermined concentrations. After incubating the plate for 72 hours, the proteins were extracted therefrom. The obtained extracts were added to each well of a 96-well plate and then treated with a L-dihydroxyphenylalanine (L-DOPA) solution (100 μL) at 37° C. for 2 hours. After 2 hours, the pictures thereof were taken and the tyrosinase activities thereof were measured at […] with a microreader.

In assay [2] the test system is tyrosinase (TYR). In words: Gene expression of tyrosinase in B16F1 cells (RT-PCR). Format: cell-based, mouse. The note with it: α-MSH, 72 hours, FIG. 7. As for the experimental part: (§1) B16F1 cells (Korean Cell Line Bank, Seoul) were added to each well of a 6-well plate (1.5×10^5 cells per well), along with 2 ml of DMEM, and then stabilized through incubating in a 5% CO2 incubator at 37° C. for 24 hours. α-MSH (Sigma Co, MO, USA), a melanocyte-stimulating hormone, was treated to each well, along with the peptide of SEQ ID NO: 3 in predetermined concentrations. After incubating the plate for 72 hours, the total RNAs were extracted therefrom and then cDNAs were synthesized. The cDNA syntheses were carried out with a Reverse Transcription Master premix (Elpisbiotech, Daejeon, Korea). Using each synthesized cDNA as a template, reverse transcription polymerase chain reaction (RT-PCR) was carried out with a ROTOR Q GENE apparatus. Each RT-PCR solution was prepared by mixing 1 μl of cDNA, 10 μl of TOPreal qRT-PCR2X premix (Enzynomics, Daejeon, Korea), 2 μl of primer set (10 pmol) and 7 μl of D. W. The RT-PCR was carried out as follows: initially at 94° C. for 10 minutes; and then at 94° C. for 10 seconds, at 58° C. for 30 seconds, and at 72° C. for 1 minute; 40 cycles.
(§2) The results obtained by measuring the gene expressions of tyrosinase, TRP-1 and TRP-2 through the above RT-PCR are shown in FIG. 7.

Assay [3] concerns TRP-1. In words: Gene expression of TRP-1 in B16F1 cells (RT-PCR). It counts as cell-based, mouse. The note with it: α-MSH, 72 hours, FIG. 7. As for the experimental part:
as §1, §2

Assay [4] concerns TRP-2. In words: Gene expression of TRP-2 in B16F1 cells (RT-PCR). It counts as cell-based, mouse. The note with it: α-MSH, 72 hours, FIG. 7. The method, then: as §1, §2
The subject of assay [5] is mouse melanoma cell line B16F1. In words: Inhibitory activity against melanin formation in mouse melanoma cell line B16F1. Format: cell-based. The note with it: B16F1 cells, α-MSH 100 nM, peptide 0.1, 1 and 10 μM, 24 hours, FIG. 5. As for the experimental part: B16F1 cells (Korean Cell Line Bank, Seoul) were added to each well of a 6-well plate (1.5×10^5 cells per well), along with 2 ml of DMEM, and then incubated in a 5% CO2 incubator at 37° C. for 24 hours. α-MSH (Sigma Co, MO, USA) (100 nM) was treated to each well, along with the peptide of SEQ ID NO: 3 in the final concentrations of 0.1, 1, and 10 μM. The groups in which α-MSH (100 nM) and foskolin (Sigma Co, MO, USA) (10 μM) were respectively treated were used as positive controls. And also, the group having no treatment (i.e., no α-MSH (100 nM) treatment) and the group in which α-MSH (100 nM) and Kojic acid (Sigma Co, MO, USA) (800 μM) were treated were used as negative controls. After additionally incubating the plate for 24 hours, the pictures of each culture ware taken so as to compare the respective levels of melanin formation.

In assay [6] the test system is B16F1 cells. In words: Inhibitory activity against proliferation of mouse melanoma cell line B16F1 (CCK-8). It counts as cell-based. The note with it: peptide 0.01, 0.1, 1 or 10 μM, 24, 48 and 72 hours, CCK-8, FIG. 8. The method, then: B16F1 cells (Korean Cell Line Bank, Seoul) were added to each well of a 96-well plate (5×10^3 cells per well), along with 100 μL of DMEM, and then incubated in a 5% CO2 incubator at 37° C. for 24 hours. The respective wells were treated with 10 μL of each peptide solution of SEQ ID NO: 3 having a concentration of 0.01, 0.1, 1, or 10 μM. After incubating the plate for 24, 48, and 72 hours, each well was treated with CCK-8 (Dojindo Laboratories, Japan) for 1 hour and then the absorbance thereof was measured at 450 nm, using a Spectramax plus 190 plate reader (Molecular Devices, USA).

Assay [7] has as its system BCL-2. In words: Inhibitory activity against BCL-2 expression in mouse melanoma cell line B16F1 (Western blotting). It counts as cell-based. The note with it: B16F1 cells, UV-B 50 mJ/cm^2 plus peptide in predetermined concentrations, 24 hours, Western blot, FIG. 9. The method, then: The expression of BCL-2, playing a critical role in proliferation of melanocytes, is controlled by MITF. Whether the BCL-2 expression in melanocytes is inhibited by the treatment of the peptide of the present invention was evaluated, using a Western blotting assay. B16F1 cells (Korean Cell Line Bank, Seoul) were added to each well of a 6-well plate (1.5×10^5 cells per well), along with 2 ml of DMEM, and then incubated in a 5% CO2 incubator at 37° C. for 24 hours. Each well was treated with UV-B irradiation (50 mJ/cm^2) and the peptide of SEQ ID NO: 3 in predetermined concentrations. After incubating the plate for 24 hours, the proteins were extracted therefrom. The extracts were subject to the Western blotting assay using an anti-BCL-2 antibody (Santa Cruz Co., CA, USA).
For orientation: Immunoblotting shows a protein as a band on a membrane.

For the substance “α-melanocyte stimulating hormone (SYSMEHFRWGKPV; ends and bridges not checked; UniProt P01189 138-150, looked up) [α-MSH, melanocyte-stimulating hormone (Sigma), used as stimulus / positive control, reference compound]”, in assay [1], the tyrosinase activity result was “increased”. For the same substance, the “expression of tyrosinase (TYR)” value in assay [2] was “increased”. In addition, the “expression of TRP-1” value in assay [3] was “increased”. For the same substance, the “expression of TRP-2” value in assay [4] was “increased”.
With “Lys-Gly-Arg (KGR; Peptide fragment) [SEQ ID NO: 3, MITF-derived peptide fragment]”, the “melanin formation (colour of cell culture)” value in assay [5] is “decreased according to the concentrations of the peptide”. Besides, in assay [1], the tyrosinase activity result is given as “decreased in concentration-dependent manner”. The “expression of tyrosinase (TYR)” value in assay [2] was “decreased in concentration-dependent manner”. Also, the “expression of TRP-1” value in assay [3] is “decreased in concentration-dependent manner”. Also, the “expression of TRP-2” value in assay [4] is on record as “decreased in concentration-dependent manner”. For the same substance, the “proliferation of B16F1 cells” value in assay [6] is recorded as “decreased in concentration-dependent manner”. The “expression levels of BCL-2” value in assay [7] was “reduced”.
